The values that follow are results of earlier work, collected in patent US20100093758A1, “PYRIDINE SULFONAMIDE MODULATORS OF ENDOTHELIN-A RECEPTOR” (AUSPEX PHARMACEUTICALS, INC., priority 2008, published 2010).

Assay in series [1]: not given
The source holds these as a separate data set.

Regarding `COc1ccccc1Oc1c(NS(=O)(=O)c2ccc(C)cn2)nc(-c2ccncc2)nc1OC` [Avosentan, 5-Methyl-pyridine-2-sulfonic acid [6-methoxy-5-(2-methoxy-phenoxy)-2-pyridin-4-yl-pyrimidin-4-yl]-amide], the fluid retention entry (at high concentrations) was “higher-than-expected rate of fluid retention”. For the same molecule, the adverse events entry (typical for vasodilating agents) is “headache, nausea and vomiting, dizziness, and postural hypotension”. The “dose dependence of Cmax and AUC” value in series [1] (doses up to 100 mg) is “increase linearly with doses up to 100 mg”. Further, in series [1] (in vivo), the “time at which maximum plasma levels are reached” value was no more than 4.5 h and the urinary excretion result is reported as “below 0.1 % of any dose”. Also, the “food effect on exposure and Cmax” value in series [1] (with food) is “does not affect overall exposure but increases Cmax”.
